Laboratory results as given in US8076324B2, “Di(hetero)arylcyclohexane derivatives, their preparation, their use and pharmaceutical compositions comprising them” (Sanofi-Aventis, priority 2007, dated 2011).

Target: T1, myocardial ATP-sensitive potassium channel (SUR2A/Kir6.2) (UniProt Q61743+Q63563)
T1 construct: expressed in transfected cells
Experiment: Rubidium efflux test on HEK293 cells transfected with SUR2A and Kir6.2 (myocardial action)
Type: cell-based, SUR2A from the rat, Kir6.2 from the mouse
Conditions: HEK293 cells transfected with SUR2A/Kir6.2; KATP channels opened by rilmakalim; 25 min incubation; read-out: IC50 values for the inhibition of the rubidium efflux
Method: 1) Action on the SUR2A/Kir6.2 potassium channel (myocardial action) The action of the compounds on the ion transport through the myocardial ATP-sensitive potassium channel (SUR2A/Kir6.2) was determined in the rubidium efflux test system described below on human embryonic kidney cells HEK293 which were transfected with the components SUR2A and Kir6.2 (cf. Weyermann et al., Naunyn-Schmiedeberg's Arch. Pharmacol. 369, 374-381 (2004)).
The HEK293 cells were cultured at 37° C. in a humidified air atmosphere with 7% carbon dioxide in minimal essential medium with Earle's salts and L-glutamine (MEM, Gibco), which was supplemented with 10% fetal calf serum and zeozin (0.36 mg/ml) and geneticin (0.75 mg/ml). The transfection of the cells and the preparation of a cell line with stable expression of Kir6.2 from the mouse (accession number AF037313) and SUR2A from the rat (accession number D83598/L40624) were carried out as described in Giblin et al., J. Biol. Chem. 274, 22652-22659 (1999).
60 000 transfected cells per well were inoculated into a poly-D-lysine-coated 96-well microtiter plate (Greiner #650 201). After incubation for 24 h at 37° C., the cells were washed three times with buffer 1 (150 mM NaCl, 2 mM CaCl2, 0.8 mM NaH2PO4, 1 mM MgCl2, 5 mM glucose, 25 mM HEPES, pH=7.4). Subsequently, the buffer solution was replaced by 100 μl of rubidium loading buffer (buffer 1 with 5.4 mM RbCl) and the cells were incubated for a further 3 h at 37° C. The rubidium loading buffer was then removed by washing the cells three times with 200 μl each of potassium chloride wash buffer (buffer 1 with 5.4 mM KCl). After addition of the test substances (70 μl; dissolved in potassium chloride wash buffer with addition of DMSO), the KATP channels of the cells were opened by addition of 70 μl of rilmakalim (2 μM) (cf. Krause et al., Pflügers Arch. 429, 625-635 (1995)) and the cells were incubated at 37° C. for 25 min. Subsequently, the cell supernatants were transferred to a new 96-well microtiter plate and the cells were lyzed by addition of 200 μl of lysis buffer (buffer 1 with 1% Triton X-100). The concentrations of Rb^+ in the cell supernatant and in the cell lyzate were measured by means of atomic absorption spectroscopy using an Al 1200 apparatus (Aurora Instruments Ltd.).
The Rb^+ efflux rate was calculated as [Rb^+SN]/[Rb^+total], wherein [Rb^+SN] is the amount of Rb^+ in the cell supernatant and [Rb^+total] is the sum of the amounts of Rb^+ in the cell supernatant and cell lyzate. IC50 values for the inhibition of the rubidium efflux were calculated with the aid of the Hill equation.

T1 sequence (Q63563 whole entry): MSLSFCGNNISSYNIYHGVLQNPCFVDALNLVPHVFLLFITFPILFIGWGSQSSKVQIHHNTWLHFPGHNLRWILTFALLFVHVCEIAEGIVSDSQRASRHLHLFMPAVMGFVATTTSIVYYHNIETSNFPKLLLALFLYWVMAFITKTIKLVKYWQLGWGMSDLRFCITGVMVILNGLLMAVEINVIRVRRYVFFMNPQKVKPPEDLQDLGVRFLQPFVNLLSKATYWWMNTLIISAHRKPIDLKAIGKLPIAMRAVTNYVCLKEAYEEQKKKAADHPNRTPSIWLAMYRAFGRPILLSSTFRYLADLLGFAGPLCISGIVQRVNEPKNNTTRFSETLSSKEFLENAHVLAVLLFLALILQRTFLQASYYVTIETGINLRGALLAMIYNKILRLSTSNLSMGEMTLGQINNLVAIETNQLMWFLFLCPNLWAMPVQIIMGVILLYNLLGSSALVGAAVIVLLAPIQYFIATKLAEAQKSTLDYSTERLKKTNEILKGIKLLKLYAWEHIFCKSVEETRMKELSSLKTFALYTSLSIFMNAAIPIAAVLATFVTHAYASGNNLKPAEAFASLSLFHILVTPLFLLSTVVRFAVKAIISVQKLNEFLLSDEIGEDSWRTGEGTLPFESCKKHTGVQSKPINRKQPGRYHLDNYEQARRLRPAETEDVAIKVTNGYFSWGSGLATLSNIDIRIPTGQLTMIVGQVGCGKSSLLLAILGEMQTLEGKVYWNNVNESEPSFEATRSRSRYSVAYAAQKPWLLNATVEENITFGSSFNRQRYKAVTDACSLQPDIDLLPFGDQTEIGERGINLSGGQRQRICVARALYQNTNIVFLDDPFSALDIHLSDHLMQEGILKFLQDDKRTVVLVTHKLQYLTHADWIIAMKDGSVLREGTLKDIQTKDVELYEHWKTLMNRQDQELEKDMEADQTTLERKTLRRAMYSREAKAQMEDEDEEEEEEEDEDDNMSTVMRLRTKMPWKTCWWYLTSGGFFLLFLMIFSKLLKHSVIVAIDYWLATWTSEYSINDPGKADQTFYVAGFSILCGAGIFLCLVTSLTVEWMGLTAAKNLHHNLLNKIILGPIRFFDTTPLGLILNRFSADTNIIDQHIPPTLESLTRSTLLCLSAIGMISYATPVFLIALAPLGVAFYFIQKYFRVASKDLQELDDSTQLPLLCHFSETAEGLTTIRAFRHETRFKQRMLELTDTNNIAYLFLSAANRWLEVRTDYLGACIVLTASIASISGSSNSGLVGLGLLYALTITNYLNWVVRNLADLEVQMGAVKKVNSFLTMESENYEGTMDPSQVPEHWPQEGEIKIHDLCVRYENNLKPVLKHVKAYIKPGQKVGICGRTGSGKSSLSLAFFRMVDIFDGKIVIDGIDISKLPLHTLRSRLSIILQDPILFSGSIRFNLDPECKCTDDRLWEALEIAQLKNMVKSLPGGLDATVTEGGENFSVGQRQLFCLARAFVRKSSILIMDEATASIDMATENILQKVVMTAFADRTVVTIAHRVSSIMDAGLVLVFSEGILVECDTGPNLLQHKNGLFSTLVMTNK
T1 sequence (Q61743 whole entry): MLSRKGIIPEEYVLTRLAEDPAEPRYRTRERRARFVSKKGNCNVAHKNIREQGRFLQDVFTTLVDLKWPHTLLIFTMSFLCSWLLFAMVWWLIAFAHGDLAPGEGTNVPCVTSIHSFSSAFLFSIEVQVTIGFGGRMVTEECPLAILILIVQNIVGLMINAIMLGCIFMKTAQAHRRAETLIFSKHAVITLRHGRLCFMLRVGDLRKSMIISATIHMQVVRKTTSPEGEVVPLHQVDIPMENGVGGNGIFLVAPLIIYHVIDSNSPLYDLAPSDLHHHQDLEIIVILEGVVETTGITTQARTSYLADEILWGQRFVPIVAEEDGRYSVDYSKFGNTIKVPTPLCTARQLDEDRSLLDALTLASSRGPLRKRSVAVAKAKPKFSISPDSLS

IC50, < 1000 nM:
CCCn1c(Cl)c(C)nc1[C@]1(OCCC(C)(C)C)CC[C@](C(=O)O)(c2ccccc2)CC1 [Example 389]
Cc1c(Br)nc([C@]2(OCCC(C)C)CC[C@](C(=O)O)(c3ccccc3)CC2)n1CC1CC1 [Example 374]
O=C(O)[C@]1(c2ccccc2)CC[C@@](OCC2CC2)(c2nc3cc(F)ccc3n2CC2CC2)CC1 [Example 452]
O=C(O)[C@]1(c2ccccc2)CC[C@](OCC2CC2)(c2nc(C3CC3)n(CC3CC3)n2)CC1 [Example 296-2, Trans-4-(5-Cyclopropyl-1-cyclopropylmethyl-1H-[1,2,4]triazol-3-yl)-4-cyclopropylmethoxy-1-phenylcyclohexanecarboxylic Acid]
Cc1nc([C@]2(OCCC(C)(C)C)CC[C@](C(=O)O)(c3ccccc3)CC2)n(C)c1Cl [Example 392]
Cc1nc([C@]2(OCC3CC3)CC[C@](C(=O)O)(c3cccnc3)CC2)n(CC2CC2)c1Cl [Example 407]
CC(C)CCO[C@]1(c2nccn2CC2CC2)CC[C@@](C(=O)O)(c2ccc(F)cc2)CC1 [Example 370]
CCCOC1(c2ccc(F)cc2SC)CCC(C(=O)O)(c2ccc(F)cc2)CC1 (centres unmarked) [Example 242]
Cc1nc([C@]2(OCC3(C)COC3)CC[C@](C(=O)O)(c3ccccc3)CC2)n(CC2CC2)c1Cl [Example 385]
Cc1nc([C@]2(OCCC(C)C)CC[C@](C(=O)O)(c3ccc(F)cc3)CC2)n(CC2CC2)c1C [Example 372]
CCCn1c(Cl)c(C)nc1[C@]1(OCC2CC2)CC[C@](C(=O)O)(c2ccccc2)CC1 [Example 388]
Cc1nc([C@]2(OCC3CC3)CC[C@](C(=O)O)(c3ccccc3)CC2)n(CC2CC2)c1Cl [Example 382]
CC(C)(C)S(=O)(=O)c1cc(F)cc([C@]2(OCC3CC3)CC[C@](C(=O)O)(c3ccc(F)cc3)CC2)c1 [Example 304-3, Cis-4-Cyclopropylmethoxy-4-[3-fluoro-5-(2-methylpropane-2-sulfonyl)phenyl]-1-(4-fluorophenyl)cyclohexanecarboxylic Acid]
O=C(O)[C@]1(c2ccc(F)cc2)CC[C@@](OCC2CC2)(c2ccc(F)cn2)CC1 [Example 263, Cis-4-Cyclopropylmethoxy-1-(4-fluorophenyl)-4-(5-fluoropyridin-2-yl)cyclohexanecarboxylic Acid]
Cc1c(F)cc(S(C)(=O)=O)cc1[C@]1(OCC2CC2)CC[C@](C(=O)O)(c2ccccc2)CC1 [Example 480, Cis-4-Cyclopropylmethoxy-4-(3-fluoro-2-methyl-5-methanesulfonylphenyl)-1-phenylcyclohexanecarboxylic Acid]
C=Cc1ccccc1C1(OC)CCC(C(=O)O)(c2ccccc2)CC1 (centres unmarked) [Example 135]
Cc1nc([C@]2(OCC3CC3)CC[C@@](C(=O)O)(c3ccc(F)cc3)CC2)n(CC2CC2)c1Br [Example 369]
Cc1ccc(C2(O)CCC(C(=O)O)(c3ccccc3)CC2)cc1F (centres unmarked) [Example 100]
O=C(O)[C@]1(c2ccccc2)CC[C@](OCC2CC2)(c2nccn2CC2CC2)CC1 [Example 493, Trans-Cyclopropylmethoxy-4-(1-cyclopropylmethyl-1H-imidazol-2-yl)-1-phenylcyclohexanecarboxylic Acid]
O=C(O)[C@]1(c2ccccc2)CC[C@](OCC2CC2)(c2cc(-c3ccccc3)ccn2)CC1 [Example 486, Trans-4-Cyclopropylmethoxy-1-phenyl-4-(4-phenylpyridin-2-yl)cyclohexanecarboxylic Acid]
